This is an account of results in US7777035B2, “Azaindazole compounds and methods of use” (Chemocentryx, Inc., priority 2005, dated 2010).

Structures are written as SMILES.

The target of this test is T1, CCR1 (Homo sapiens, UniProt P32246).
T1 construct: host or cells: THP-1 cells or monocytes isolated from human buffy coats
T1 sequence (P32246 1-355): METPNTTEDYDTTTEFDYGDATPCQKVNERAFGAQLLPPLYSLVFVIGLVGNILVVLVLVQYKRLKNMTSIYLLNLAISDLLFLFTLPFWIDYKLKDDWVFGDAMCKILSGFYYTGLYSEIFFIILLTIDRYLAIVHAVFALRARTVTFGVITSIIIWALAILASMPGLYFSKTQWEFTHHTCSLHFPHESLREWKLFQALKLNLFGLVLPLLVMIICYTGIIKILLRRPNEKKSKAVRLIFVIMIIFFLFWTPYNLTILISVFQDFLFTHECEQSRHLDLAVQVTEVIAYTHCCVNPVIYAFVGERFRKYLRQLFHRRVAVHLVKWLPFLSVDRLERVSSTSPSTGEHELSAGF
As to the kind of experiment: CCR1 chemotaxis assay or binding assay (activity given for either). Particulars: either the chemotaxis assay or binding assay; CCR1 expressing cells (THP-1 or human monocytes); read-out: Activity (IC50 class). How it is done: Cells were grown under 5% CO2/95% air, 100% humidity at 37° C. and subcultured twice weekly at 1:5 (cells were cultured at a density range of 2×10^5 to 2×10^6 cells/mL) and harvested at 1×10^6 cells/mL. THP-1 cells express CCR1 and can be used in CCR1 binding and functional assays.
Monocytes were isolated from human buffy coats using the Miltenyi bead isolation system (Miltenyi, Auburn, Calif.). Briefly, following a Ficoll gradient separation to isolate peripheral blood mononuclear cells, cells were washed with PBS and the red blood cells lysed using standard procedures. Remaining cells were labeled with anti-CD14 antibodies coupled to magnetic beads (Miltenyi Biotech, Auburn, Calif.). Labeled cells were passed through AutoMACS (Miltenyi, Auburn, Calif.) and positive fraction collected. Monocytes express CCR1 and can be used in CCR1 binding and functional assays.
CCR1 expressing cells were centrifuged and resuspended in assay buffer (20 Mm HEPES pH 7.1, 140 Mm NaCl, 1 Mm CaCl2, 5 Mm MgCl2, and with 0.2% bovine serum albumin) to a concentration of 5×10^6 cells/mL for THP-1 cells and 5×10^5 for monocytes. Binding assays were set up as follows. […] Reactions were aspirated onto GF/B glass filters pre-soaked in 0.3% polyethyleneimine (PEI) solution, on a vacuum cell harvester (Packard Instruments; Meriden, Conn.). Scintillation fluid (40 μl; Microscint 20, Packard Instruments) was added to each well, the plates were sealed and radioactivity measured in a Topcount scintillation counter (Packard Instruments). Control wells containing either diluent only (for total counts) or excess MIP-1α or MIP-1β (1 μg/mL, for non-specific binding) were used to calculate the percent of total inhibition for compound. The computer program Prism from GraphPad, Inc. (San Diego, Calif.) was used to calculate IC50 values.
Chemotaxis assays were performed using 5 ┌ m pore polycarbonate, polyvinylpyrrolidone-coated filters in 96-well chemotaxis chambers (Neuroprobe; Gaithersburg, Md.) using chemotaxis buffer (Hank's balanced salt solution (HBSS) and 1% FBS). CCR1 chemokine ligands (i.e., MIP-1α, CCL15/Leukotactin; R&D Systems; Minneapolis, Minn.) are use to evaluate compound mediated inhibition of CCR1 Mediated migration. Other chemokines (i.e., SDF-1α; R&D Systems; Minneapolis, Minn.) are used as specificity controls. […] The chambers were incubated 1-2 hours at 37° C., and the number of cells in the lower chamber quantified either by direct cell counts in five high powered fields per well or by the CyQuant assay (Molecular Probes), a fluorescent dye method that measures nucleic acid content and microscopic observation.
THP-1 cells and monocytes lack other chemokine receptors that bind the same set of chemokine ligands as CCR1 (i.e., MIP-1α, MPIF-1, Leukotactin, etc.). Equal numbers of cells were added to each well in the plate. The cells were then incubated with radiolabeled MIP-1α. Unbound ligand was removed by washing the cells, and bound ligand was determined by quantifying radioactive counts. […] Percent inhibition was determined by the equation: […]
In the assay, the amount of compound was varied; while cell number and ligand concentration were held constant.
One of the primary functions of chemokines is their ability to mediate the migration of chemokine receptor-expressing cells, such as white blood cells. […] THP-1 Myelomonocytic leukemia cells, which resemble monocytes, as wells as freshly isolated monocytes, were used as targets for chemoattraction by CCR1 chemokine ligands (i.e., MIP-1α, CCL15/leukotactin). […] In this assay, the amount of compound was varied; while cell number and chemokine agonist concentrations were held constant. After the chemotaxis chambers were incubated 1-2 hours at 37° C., the responding cells in the lower chamber were quantified by labeling with the CyQuant assay (Molecular Probes), a fluorescent dye method that measures nucleic acid content, and by measuring with a Spectrafluor Plus (Tecan).
Consider `COc1cc(N2CCN(C(=O)Cn3ncc4cccnc43)[C@@H](C)C2)c(F)cc1Cl` [Compound 1.001], for which the IC50 is < 1 µM. Under `COc1cc(N2CCN(C(=O)Cn3cc4cccnc4n3)[C@@H](C)C2)c(F)cc1Cl` [Compound 1.002] stands < 1 µM. `COc1cc(N2CCN(C(=O)Cn3nc(N)c4cccnc43)[C@@H](C)C2)c(F)cc1Cl` [Compound 1.003]: the half-maximal inhibitory concentration (IC50) is < 1 µM. For `COc1cc(N2CCN(C(=O)Cn3nc(Cl)c4cccnc43)CC2)ccc1Cl` [Compound 1.004] the value was < 1 µM. Under `COc1cc(N2CCN(C(=O)Cn3nc(C)c4cccnc43)[C@@H](C)C2)c(F)cc1Cl` [Compound 1.005] stands < 1 µM.

With `COc1cc(N2CCN(C(=O)Cn3cc4cccnc4n3)CC2)ccc1Cl` [Compound 1.006], the IC50 is < 1 µM.

Turning to `COc1cc(N2CCN(C(=O)Cn3ncc4cccnc43)CC2)ccc1Cl` [Compound 1.007], the IC50 was < 1 µM.

Consider `COc1cc(N2CCN(C(=O)Cn3ncc4cnccc43)[C@@H](C)C2)c(F)cc1Cl` [Compound 1.008], for which the IC50 was < 1 µM. As to `COc1cc(N2CCN(C(=O)Cn3cc4ccncc4n3)[C@@H](C)C2)c(F)cc1Cl` [Compound 1.009], the IC50 is < 1 µM.

Take `COc1cc(N2CCN(C(=O)Cn3nc(-c4ccccn4)c4cccnc43)CC2)ccc1Cl` [Compound 1.010]: the IC50 was < 1 µM. In the case of `COc1cc(N2CCN(C(=O)Cn3nc(-c4nccs4)c4cccnc43)CC2)ccc1Cl` [Compound 1.011], the IC50 was in the range of 2.5 to 12.5 µM. Consider `COc1cc(N2CCN(C(=O)Cn3ncc4cccnc43)CC2)c(F)cc1Cl` [Compound 1.012], for which the IC50 is < 1 µM.

With `COc1cc(N2CCN(C(=O)Cn3cc4cccnc4n3)CC2)c(F)cc1Cl` [Compound 1.013], the IC50 was < 1 µM.

Consider `COc1cc(N2CCN(C(=O)Cn3nc(C)c4cccnc43)CC2)ccc1Cl` [Compound 1.014], for which the concentration for half-maximal inhibition (IC50) was 1 to 2.5 µM. For `COc1cc(N2CCN(C(=O)Cn3nc(-c4ncco4)c4cccnc43)CC2)ccc1Cl` [Compound 1.015] the value was < 1 µM; for `COc1cc(N2CCN(C(=O)Cn3nc(F)c4cccnc43)CC2)ccc1Cl` [Compound 1.016], < 1 µM; for `COc1cc(N2CCN(C(=O)Cn3nc(-c4ncco4)c4cccnc43)[C@@H](C)C2)c(F)cc1Cl` [Compound 1.017], < 1 µM. With `COc1cc(N2CCN(C(=O)Cn3cc4ccncc4n3)CC2)ccc1Cl` [Compound 1.018], the IC50 was < 1 µM. With `COc1cc(N2CCN(C(=O)Cn3ncc4ccncc43)CC2)ccc1Cl` [Compound 1.019], the IC50 was < 1 µM. Take `COc1cc(N2CCN(C(=O)Cn3nc(-c4nccs4)c4cccnc43)[C@@H](C)C2)c(F)cc1Cl` [Compound 1.021]: the IC50 was < 1 µM.

Take `COc1cc(N2CCN(C(=O)Cn3nc(-c4ccccn4)c4cccnc43)[C@@H](C)C2)c(F)cc1Cl` [Compound 1.022]: the IC50 was < 1 µM. As for `COc1cc(N2CCN(C(=O)Cn3nc(C)c4cccnc43)CC2)ccc1Cl` [Compound 1.023], the IC50 was < 1 µM.

Turning to `COc1cc(N2CCN(C(=O)Cn3nc(-c4nccs4)c4cccnc43)CC2)ccc1Cl` [Compound 1.025], the IC50 was < 1 µM.

In the case of `COc1cc(N2CCN(C(=O)Cn3nc(C#N)c4cccnc43)CC2)ccc1Cl` [Compound 1.026], the IC50 was < 1 µM. With `COc1cc(N2CCN(C(=O)Cn3cc4ncccc4n3)CC2)ccc1Cl` [Compound 1.027], the IC50 was < 1 µM. Regarding `COc1cc(N2CCN(C(=O)Cn3ncc4ncccc43)CC2)ccc1Cl` [Compound 1.028], the IC50 was < 1 µM. In the case of `COc1cc(N2CCN(C(=O)Cn3nc4ncccc4c3Cl)CC2)ccc1Cl` [Compound 1.029], the IC50 is < 1 µM. `COc1cc(N2CCN(C(=O)Cn3ncc4ccc[n+]([O-])c43)CC2)ccc1Cl` [Compound 1.030]: the IC50 is < 1 µM. Under `COc1cc(N2CCN(C(=O)Cn3ncc4ccc(C)nc43)CC2)ccc1Cl` [Compound 1.031] stands < 1 µM; under `COc1cc(N2CCN(C(=O)Cn3cc4ccc(C)nc4n3)CC2)ccc1Cl` [Compound 1.032], < 1 µM. Take `COc1cc(N2CCN(C(=O)Cn3nc(N4CCOCC4)c4cccnc43)CC2)ccc1Cl` [Compound 1.033]: the IC50 was < 1 µM. Turning to `COc1cc(N2CCN(C(=O)Cn3ncc4ccncc43)[C@@H](C)C2)c(F)cc1Cl` [Compound 1.034], the IC50 was < 1 µM.

In the case of `COc1cc(N2CCN(C(=O)Cn3ncc4cc[n+]([O-])cc43)CC2)ccc1Cl` [Compound 1.035], the IC50 was < 1 µM.

With `COc1cc(N2CCN(C(=O)Cn3cc4c(Cl)nccc4n3)CC2)ccc1Cl` [Compound 1.036], the IC50 was < 1 µM.

In the case of `COc1cc(N2CCN(C(=O)Cn3cc4c(I)ccnc4n3)CC2)ccc1Cl` [Compound 1.037], the IC50 was < 1 µM. `COc1cc(N2CCN(C(=O)Cn3ncc4c(I)ccnc43)CC2)ccc1Cl` [Compound 1.038]: the IC50 is < 1 µM. As to `COc1cc(N2CCN(C(=O)Cn3ncc4c(S(C)(=O)=O)ccnc43)CC2)ccc1Cl` [Compound 1.039], the IC50 is < 1 µM. As to `COc1cc(N2CCN(C(=O)Cn3nc(CN=[N+]=[N-])c4cccnc43)CC2)ccc1Cl` [Compound 1.040], the IC50 was < 1 µM. Consider `COc1cc(N2CCN(C(=O)Cn3nc(CS(=O)(=O)O)c4cccnc43)CC2)ccc1Cl` [Compound 1.041], for which the IC50 was 1 to 2.5 µM. Regarding `COc1cc(N2CCN(C(=O)Cn3ncc4cc(Cl)cnc43)CC2)ccc1Cl` [Compound 1.042], the IC50 is < 1 µM. Under `COc1cc(N2CCN(C(=O)Cn3ncc4c(Cl)ncnc43)CC2)ccc1Cl` [Compound 1.044] stands < 1 µM. For `COc1cc(N2CCN(C(=O)Cn3ncc4c(OC)ncnc43)CC2)ccc1Cl` [Compound 1.045], the half-inhibitory concentration (IC50) is < 1 µM. On to `COc1cc(N2CCN(C(=O)Cn3cc4ccc(Cl)nc4n3)CC2)ccc1Cl` [Compound 1.046], for which the IC50 was < 1 µM.

For the compound `COc1cc(N2CCN(C(=O)Cn3ncc4ccc(Cl)nc43)CC2)ccc1Cl` [Compound 1.047], the IC50 is < 1 µM. Consider `COc1cc(N2CCN(C(=O)Cn3ncc4ccc(N=[N+]=[N-])nc43)CC2)ccc1Cl` [Compound 1.048], for which the IC50 was < 1 µM. With `COc1cc(N2CCN(C(=O)Cn3ncc4ccc(N)nc43)CC2)ccc1Cl` [Compound 1.049], the IC50 was < 1 µM. Regarding `COc1cc(N2CCN(C(=O)Cn3ncc4ccnc(N=[N+]=[N-])c43)CC2)ccc1Cl` [Compound 1.050], the IC50 is < 1 µM. Consider `COc1cc(N2CCN(C(=O)Cn3ncc4ccnc(N)c43)CC2)ccc1Cl` [Compound 1.051], for which the IC50 was < 1 µM.

Turning to `COc1cc(N2CCN(C(=O)Cn3nc4ncccc4c3-c3ncco3)CC2)ccc1Cl` [Compound 1.052], the concentration for half-maximal inhibition (IC50) was < 1 µM.

Regarding `COc1cc(N2CCN(C(=O)Cn3nc(C)c4cc(N)cnc43)CC2)ccc1Cl` [Compound 1.053], the half-inhibitory concentration (IC50) is < 1 µM. Take `COc1cc(N2CCN(C(=O)Cn3nc(C)c4cc([N+](=O)[O-])cnc43)CC2)ccc1Cl` [Compound 1.054]: the IC50 was < 1 µM.

In general, IC50 refers to the midpoint of a concentration-inhibition curve.
